Assay results taken from patent US4861788A, “Antibacterial 1-normon-2-yl-heterocyclic compounds” (Beecham Group plc, priority 1983, dated 1989).
Values after ≈ are worked out from the molar mass of the structure shown. Where two headings read alike, the source gives them in different places.

Experiments:
Strep. dysgalactiae SPD1 = experiment: MIC against veterinary bacteria in vitro (Diagnostic Sensitivity Test Agar); details: Streptococcus dysgalactiae, SPD1, 18 h
Method: (§2) The activity of the normonyl derivatives of the Examples against various veterinarily important bacteria, was assayed in vitro using two-fold serial dilutions in Diagnostic Sensitivity Test Agar inoculated with 10^4 organisms.

M. hyorhinis ATCC 25021 = experiment: MIC against Mycoplasma in vitro (Friis broth with agarose); type: cell-based; details: Mesomycoplasma hyorhinis, ATCC25021, 144 h
Bord. bronchiseptica B09 = experiment: MIC against veterinary bacteria in vitro (Diagnostic Sensitivity Test Agar); details: Bordetella bronchiseptica, B09, 18 h
Method: as §2

M. hyopneumoniae TAM 6N = experiment: MIC against Mycoplasma in vitro (Friis broth with agarose); type: cell-based; details: Mesomycoplasma hyopneumoniae, TAM6N, 144 h
[1] = tested on: Staph. aureus 152 (pen. sens); experiment: MIC against veterinary bacteria in vitro (Diagnostic Sensitivity Test Agar); details: Staphylococcus aureus, 18 h
Method: as §2

M. bovis NCTC 10131 = experiment: microbe, parasite or virus in culture; type: cell-based; details: NCTC10131, 144 h
M. gallisepticum S6 = experiment: MIC against Mycoplasma in vitro (Friis broth with agarose); type: cell-based; details: Mycoplasmoides gallisepticum, 144 h; M. gallisepticum S6; 6 days at 37° C; read-out: MIC
Staph. aureus Oxford = experiment: MIC against human bacteria in vitro (nutrient agar, chocolated horse blood); type: cell-based; details: Staphylococcus aureus
Method: (§1) The activity of the normonyl derivaties of the Examples against various bacteria which are important in diseases of humans, was assayed in vitro using serial dilutions in nurient agar with 5% chocolated horse blood.

Bacillus subtilis 6633 = experiment: as above; type: cell-based; details: human; Bacillus subtilis 6633; 18 hours at 37° C; read-out: MIC
Method: as §1

Staph. aureus W2827 = experiment: as above; type: cell-based; details: Staphylococcus aureus; human; Staph. aureus W2827; 18 hours at 37° C; read-out: MIC
Method: as §1

[2] = tested on: Pasteurella multocida 1633; experiment: as above; type: cell-based; details: human; Pasteurella multocida 1633; 18 hours at 37° C; read-out: MIC
Method: as §1

[3] = tested on: Haemophilus influenzae Wy21; experiment: as above; type: cell-based; details: human; Haemophilus influenzae Wy21; 18 hours at 37° C; read-out: MIC
Method: as §1

Strep. agalactiae 2788-B = experiment: as above; type: cell-based; details: Streptococcus agalactiae; human; Strep. agalactiae 2788-B; 18 hours at 37° C; read-out: MIC
Method: as §1

E. coli ESS = experiment: as above; type: cell-based; details: Escherichia coli; human; E. coli ESS; 18 hours at 37° C; read-out: MIC
Method: as §1

[4] = tested on: Ps. aeruginosa NCTC 10662; experiment: as above; type: cell-based; details: Pseudomonas aeruginosa, NCTC10662; human; Ps. aeruginosa NCTC 10662; 18 hours at 37° C; read-out: MIC
Method: as §1

Staph. aureus Russell = experiment: as above; type: cell-based; details: Staphylococcus aureus; human; Staph. aureus Russell; 18 hours at 37° C; read-out: MIC
Method: as §1

K. aerogenes A = experiment: as above; type: cell-based; details: Klebsiella aerogenes; human; K. aerogenes A; 18 hours at 37° C; read-out: MIC
Method: as §1

Strep. spp. 64/848-C = experiment: as above; type: cell-based; details: human; Strep. spp. 64/848-C; 18 hours at 37° C; read-out: MIC
Method: as §1

Strep. faecalis I = experiment: as above; type: cell-based; details: Enterococcus faecalis; human; Strep. faecalis I; 18 hours at 37° C; read-out: MIC
Method: as §1

E. coli NCTC 10418 = experiment: as above; type: cell-based; details: Escherichia coli, NCTC10418; human; E. coli NCTC 10418; 18 hours at 37° C; read-out: MIC
Method: as §1

Sarcina lutea 8340 = experiment: as above; type: cell-based; details: Micrococcus luteus; human; Sarcina lutea 8340; 18 hours at 37° C; read-out: MIC
Method: as §1

P. mirabilis 889 = experiment: as above; type: cell-based; details: Proteus mirabilis; human; P. mirabilis 889; 18 hours at 37° C; read-out: MIC
Method: as §1

[5] = tested on: Strep. suis (group D) SPS11; experiment: MIC against veterinary bacteria in vitro (Diagnostic Sensitivity Test Agar); details: Streptococcus suis, 18 h
Method: as §2

M. hyopneumoniae Str. 11 = experiment: MIC against Mycoplasma in vitro (Friis broth with agarose); type: cell-based; details: Mesomycoplasma hyopneumoniae, STR.11, 144 h
[6] = tested on: Erysipelothrix rhusiopathiae NCTC 8163; experiment: MIC against veterinary bacteria in vitro (Diagnostic Sensitivity Test Agar); details: NCTC8163, 18 h
Method: as §2

[7] = tested on: Staph. aureus B4 (pen. resistant); experiment: as above; details: Staphylococcus aureus, 18 h
Method: as §2

Past. haemolytica PA5 = experiment: as above; details: Mannheimia haemolytica, PA5, 18 h
Method: as §2

Strep. agalactiae SPA1 = experiment: as above; details: Streptococcus agalactiae, SPA1, 18 h
Method: as §2

[8] = tested on: M. bovigenitalium ATCC 14173; experiment: MIC against Mycoplasma in vitro (Friis broth with agarose); type: cell-based; details: 144 h
[9] = tested on: M. hyopneumoniae ATCC 25095; experiment: as above; type: cell-based; details: Mesomycoplasma hyopneumoniae, ATCC25095, 144 h
M. hyopneumoniae MS 16 = experiment: as above; type: cell-based; details: Mesomycoplasma hyopneumoniae, MS16, 144 h; M. hyopneumoniae MS 16; 6 days at 37° C; read-out: MIC
[10] = tested on: Strep. pyogenes R80/421-A; experiment: MIC against human bacteria in vitro (nutrient agar, chocolated horse blood); type: cell-based; details: Streptococcus pyogenes; human; Strep. pyogenes R80/421-A; 18 hours at 37° C; read-out: MIC
Method: as §1

[11] = tested on: Corynebacterium xerosis 9755; experiment: as above; type: cell-based; details: human; Corynebacterium xerosis 9755; 18 hours at 37° C; read-out: MIC
Method: as §1

[12] = M. hyorhinis ATCC 25021, 6 days at 37° C, read-out: MIC
[13] = M. hyopneumoniae TAM 6N, 6 days at 37° C, read-out: MIC
[14] = human, Staph. aureus Oxford, 18 hours at 37° C, read-out: MIC
[15] = M. bovigenitalium ATCC 14173, 6 days at 37° C, read-out: MIC

For `CC(=Cc1nnc(-c2ccc(N(C)C)cc2)o1)CC1OCC(CC2OC2C(C)C(C)O)C(O)C1O` (centres unmarked) [Example 10, 2-(4-Dimethylaminophenyl)-5-(1-normon-2-yl)-1,3,4-oxadiazole A], the MIC (Strep. dysgalactiae SPD1) was 80 mg/L (≈ 164 µM), the MIC (M. hyorhinis ATCC 25021) was 1 mg/L (≈ 2.05 µM) and the MIC (Bord. bronchiseptica B09) was over 80 mg/L. For the same compound, the MIC (M. hyopneumoniae TAM 6N) was 5 mg/L (≈ 10.3 µM), the MIC [1] was 5 mg/L (≈ 10.3 µM) and the MIC (M. bovis NCTC 10131) was 0.25 mg/L (≈ 0.513 µM). It also gave an MIC (M. gallisepticum S6) of over 10 mg/L, an MIC (Staph. aureus Oxford; 18 h) of 1 mg/L (≈ 2.05 µM) and an MIC (Bacillus subtilis 6633) of 2 mg/L (≈ 4.1 µM). It also gave an MIC (Staph. aureus W2827) of 4 mg/L (≈ 8.2 µM), an MIC [2] of 16 mg/L (≈ 32.8 µM) and an MIC [3] of 2 mg/L (≈ 4.1 µM). The MIC (Strep. agalactiae 2788-B) was 16 mg/L (≈ 32.8 µM), the MIC (E. coli ESS) was 2 mg/L (≈ 4.1 µM) and the MIC [4] was over 128 mg/L. For the same compound, the MIC (Staph. aureus Russell) was 4 mg/L (≈ 8.2 µM), the MIC (K. aerogenes A) was over 128 mg/L and the MIC (Strep. spp. 64/848-C) was 16 mg/L (≈ 32.8 µM). It also gave an MIC (Strep. faecalis I) of over 128 mg/L, an MIC (E. coli NCTC 10418) of over 128 mg/L and an MIC (Sarcina lutea 8340) of over 128 mg/L. For the same compound, the MIC (P. mirabilis 889) was over 128 mg/L, the MIC [5] was over 80 mg/L and the MIC (M. hyopneumoniae Str. 11) was 1 mg/L (≈ 2.05 µM). It also gave an MIC [6] of 40 mg/L (≈ 82 µM), an MIC [7] of 5 mg/L (≈ 10.3 µM) and an MIC (Past. haemolytica PA5) of 40 mg/L (≈ 82 µM). The MIC (Strep. agalactiae SPA1) was over 80 mg/L and the MIC [8] was 1 mg/L (≈ 2.05 µM).

In the case of `CC(=Cc1nnc(-c2cccc(C#N)c2)o1)CC1OCC(CC2OC2C(C)C(C)O)C(O)C1O` (centres unmarked) [Example 11, 2-(m-Cyanophenyl)-5-(1-normon-2-yl)-1,3,4-oxadiazole A], the MIC (Strep. dysgalactiae SPD1) is reported as 2.5 mg/L (≈ 5.32 µM), the MIC (M. hyorhinis ATCC 25021; [12]) is reported as 0.1 mg/L (≈ 0.213 µM) and the MIC (Bord. bronchiseptica B09) is reported as 40 mg/L (≈ 85.2 µM). It also gave an MIC (M. hyopneumoniae TAM 6N; [13]) of 0.25 mg/L (≈ 0.532 µM), an MIC [1] of 20 mg/L (≈ 42.6 µM) and an MIC (M. bovis NCTC 10131) of 0.05 mg/L (≈ 0.106 µM). The MIC (M. gallisepticum S6) was over 10 mg/L, the MIC (Staph. aureus Oxford; [14]) was 8 mg/L (≈ 17 µM) and the MIC (Bacillus subtilis 6633) was 2 mg/L (≈ 4.26 µM). The MIC (Staph. aureus W2827) was 16 mg/L (≈ 34.1 µM), the MIC [2] was 2 mg/L (≈ 4.26 µM) and the MIC [3] was 0.5 mg/L (≈ 1.06 µM). The MIC (Strep. agalactiae 2788-B) was 2 mg/L (≈ 4.26 µM), the MIC (E. coli ESS) was 2 mg/L (≈ 4.26 µM) and the MIC [4] was over 64 mg/L. For the same compound, the MIC (Staph. aureus Russell) was 32 mg/L (≈ 68.2 µM), the MIC (K. aerogenes A) was over 64 mg/L and the MIC (Strep. spp. 64/848-C) was 2 mg/L (≈ 4.26 µM). For the same compound, the MIC (Strep. faecalis I) was over 64 mg/L, the MIC (E. coli NCTC 10418) was over 64 mg/L and the MIC (Sarcina lutea 8340) was over 64 mg/L. It also gave an MIC (P. mirabilis 889) of over 64 mg/L, an MIC [5] of over 80 mg/L and an MIC (M. hyopneumoniae Str. 11) of 0.25 mg/L (≈ 0.532 µM). The MIC [6] was 40 mg/L (≈ 85.2 µM), the MIC [7] was 20 mg/L (≈ 42.6 µM) and the MIC ([9]; M. hyopneumoniae ATCC 25095, 6 days at 37° C, read-out: MIC) was 0.25 mg/L (≈ 0.532 µM). The MIC (Past. haemolytica PA5) was 10 mg/L (≈ 21.3 µM), the MIC (Strep. agalactiae SPA1) was 5 mg/L (≈ 10.6 µM) and the MIC [8, 15] was 0.1 mg/L (≈ 0.213 µM). For the same compound, the MIC (M. hyopneumoniae MS 16) was 0.1 mg/L (≈ 0.213 µM).

Compound `CC(=Cc1nc(-c2ccc([N+](=O)[O-])cc2)no1)CC1OCC(CC2OC2C(C)C(C)O)C(O)C1O` (centres unmarked) [Example 16, 5-(1-Normon-2-yl)-3-(4-nitrophenyl)-1,2,4-oxadiazole] has an MIC (Strep. dysgalactiae SPD1) of 10 mg/L (≈ 20.4 µM), an MIC (M. hyorhinis ATCC 25021; [12]) of 0.25 mg/L (≈ 0.511 µM) and an MIC (Bord. bronchiseptica B09) of 10 mg/L (≈ 20.4 µM). The MIC (M. hyopneumoniae TAM 6N; [13]) was 1 mg/L (≈ 2.04 µM), the MIC [1] was 2.5 mg/L (≈ 5.11 µM) and the MIC (M. bovis NCTC 10131) was 0.25 mg/L (≈ 0.511 µM). It also gave an MIC (M. gallisepticum S6) of over 10 mg/L, an MIC (Staph. aureus Oxford; [14]) of 16 mg/L (≈ 32.7 µM) and an MIC (Bacillus subtilis 6633) of 16 mg/L (≈ 32.7 µM). The MIC (Staph. aureus W2827) was 16 mg/L (≈ 32.7 µM), the MIC [2] was 32 mg/L (≈ 65.4 µM) and the MIC [3] was 4 mg/L (≈ 8.17 µM). It also gave an MIC (Strep. agalactiae 2788-B) of 32 mg/L (≈ 65.4 µM), an MIC [10] of 32 mg/L (≈ 65.4 µM) and an MIC (E. coli ESS) of 8 mg/L (≈ 16.3 µM). The MIC [11] was over 64 mg/L, the MIC [4] was over 64 mg/L and the MIC (Staph. aureus Russell) was 16 mg/L (≈ 32.7 µM). It also gave an MIC (K. aerogenes A) of over 64 mg/L, an MIC (Strep. spp. 64/848-C) of 32 mg/L (≈ 65.4 µM) and an MIC (Strep. faecalis I) of over 64 mg/L. It also gave an MIC (E. coli NCTC 10418) of over 64 mg/L, an MIC (Sarcina lutea 8340) of over 64 mg/L and an MIC (P. mirabilis 889) of over 64 mg/L. The MIC [5] was 80 mg/L (≈ 163 µM), the MIC (M. hyopneumoniae Str. 11) was 0.25 mg/L (≈ 0.511 µM) and the MIC [6] was 10 mg/L (≈ 20.4 µM). It also gave an MIC [7] of 1.25 mg/L (≈ 2.55 µM), an MIC [9] of 0.1 mg/L (≈ 0.204 µM) and an MIC (Past. haemolytica PA5) of 20 mg/L (≈ 40.9 µM). It also gave an MIC (Strep. agalactiae SPA1) of 5 mg/L (≈ 10.2 µM) and an MIC [8, 15] of 0.5 mg/L (≈ 1.02 µM).
